pIC50: −log10 of the molar value. Where “and” joins values, the source holds several entries; their conditions need not be identical. Equal entries are not always repeated. Where two headings read alike, the source gives them in different places.
What was measured:
hPDE2A = target: T1, hPDE2A (Homo sapiens, UniProt O00408); test: In vitro assay PDE2A (SPA, 3H-cGMP); format: biochemical; conditions: for Emax: read-out: hPDE2A Emax; for IC50: 10 μM cGMP substrate, read-out: hPDE2A pIC50 (converted)
T1 construct: made in house; host or cells: Sf9 insect cells (baculovirus)
T1 sequence (O00408 whole entry): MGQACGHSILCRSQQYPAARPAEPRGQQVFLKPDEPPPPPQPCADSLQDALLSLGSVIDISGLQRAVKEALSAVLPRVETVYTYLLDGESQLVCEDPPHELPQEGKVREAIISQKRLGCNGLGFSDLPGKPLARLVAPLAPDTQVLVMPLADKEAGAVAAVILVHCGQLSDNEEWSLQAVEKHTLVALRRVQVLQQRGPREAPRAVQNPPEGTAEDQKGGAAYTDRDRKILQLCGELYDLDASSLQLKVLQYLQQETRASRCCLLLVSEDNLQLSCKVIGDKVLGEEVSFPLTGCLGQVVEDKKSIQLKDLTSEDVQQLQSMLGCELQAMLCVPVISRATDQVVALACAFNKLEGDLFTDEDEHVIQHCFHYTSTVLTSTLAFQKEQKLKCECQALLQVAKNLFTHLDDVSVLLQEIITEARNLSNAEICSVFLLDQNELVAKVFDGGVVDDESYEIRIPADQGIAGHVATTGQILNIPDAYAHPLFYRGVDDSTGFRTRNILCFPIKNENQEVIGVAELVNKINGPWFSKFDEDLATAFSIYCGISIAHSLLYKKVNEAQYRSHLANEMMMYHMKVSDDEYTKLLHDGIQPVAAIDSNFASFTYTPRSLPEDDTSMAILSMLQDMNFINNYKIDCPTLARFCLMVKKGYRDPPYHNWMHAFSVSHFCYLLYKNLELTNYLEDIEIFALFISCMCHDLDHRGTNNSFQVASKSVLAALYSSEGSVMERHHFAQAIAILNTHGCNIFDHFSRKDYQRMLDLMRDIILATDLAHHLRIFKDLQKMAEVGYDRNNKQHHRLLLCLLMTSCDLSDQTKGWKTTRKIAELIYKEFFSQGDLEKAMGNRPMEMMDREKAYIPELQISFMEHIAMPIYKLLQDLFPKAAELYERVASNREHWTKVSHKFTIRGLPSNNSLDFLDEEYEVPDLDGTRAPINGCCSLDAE
Description: Human recombinant PDE2A (hPDE2A) was expressed in Sf9 cells using a recombinant rPDE10A baculovirus construct. Cells were harvested after 48 h of infection and the hPDE2A protein was purified by metal chelate chromatography on Ni-sepharose 6FF. Tested compounds were dissolved and diluted in 100% DMSO to a concentration 100 fold of the final concentration in the assay. Compound dilutions (0.4 μl) were added in 384 well plates to 20 μl of incubation buffer (50 mM Tris pH 7.8, 8.3 mM MgCl2, 1.7 mM EGTA). 10 μl of hPDE2A enzyme in incubation buffer was added and the reaction was started by addition of 10 μl substrate to a final concentration of 10 μM cGMP and 0.01 μCi ^3H-cGMP. The reaction was incubated for 45 minutes at room temperature. […] After sedimentation of the beads during 30 minutes the radioactivity was measured in a Perkin Elmer Topcount scintillation counter and results were expressed as cpm. For blanc values the enzyme was omitted from the reaction and replaced by incubation buffer. Control values were obtained by addition of a final concentration of 1% DMSO instead of compound.

hPDE3B = test: In vitro assay PDE3 (SPA, 3H-cAMP); format: biochemical, human; set-up: hPDE3B Emax: unit not given here; conditions: for hPDE3B pIC50: 0.4 μM cAMP substrate
hPDE10A2 = hPDE10A2 (Homo sapiens, UniProt Q9Y233); test: biochemical; conditions: for IC50: 60 nM cAMP substrate, read-out: hPDE10A2 pIC50 (converted); for Emax: read-out: hPDE10A2 Emax
hPDE10A2, sequence (Q9Y233 267-1055): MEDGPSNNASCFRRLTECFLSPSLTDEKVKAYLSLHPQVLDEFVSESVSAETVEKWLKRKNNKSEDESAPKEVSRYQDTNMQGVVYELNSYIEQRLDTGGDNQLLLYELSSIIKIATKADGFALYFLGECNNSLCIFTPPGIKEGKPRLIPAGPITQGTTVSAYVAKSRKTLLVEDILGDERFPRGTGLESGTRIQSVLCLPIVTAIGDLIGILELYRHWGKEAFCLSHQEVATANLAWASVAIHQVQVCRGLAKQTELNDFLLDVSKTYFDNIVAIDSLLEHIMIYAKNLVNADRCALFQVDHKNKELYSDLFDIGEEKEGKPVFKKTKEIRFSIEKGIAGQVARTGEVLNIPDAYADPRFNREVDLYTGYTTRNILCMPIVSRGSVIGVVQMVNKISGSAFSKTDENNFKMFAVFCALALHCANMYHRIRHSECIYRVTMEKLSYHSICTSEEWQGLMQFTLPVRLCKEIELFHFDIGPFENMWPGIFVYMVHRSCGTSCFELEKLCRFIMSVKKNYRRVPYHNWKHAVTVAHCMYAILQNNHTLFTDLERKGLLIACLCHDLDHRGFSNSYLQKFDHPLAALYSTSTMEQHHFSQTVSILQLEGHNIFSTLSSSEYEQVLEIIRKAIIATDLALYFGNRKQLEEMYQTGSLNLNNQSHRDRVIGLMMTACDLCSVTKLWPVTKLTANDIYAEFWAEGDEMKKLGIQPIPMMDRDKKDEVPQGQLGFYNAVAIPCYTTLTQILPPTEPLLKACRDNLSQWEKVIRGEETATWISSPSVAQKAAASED
Description: Rat recombinant PDE10A (rPDE10A2) was expressed in Sf9 cells using a recombinant rPDE10A baculovirus construct. Cells were harvested after 48 h of infection and the rPDE10A protein was purified by metal chelate chromatography on Ni-sepharose 6FF. Tested compounds were dissolved and diluted in 100% DMSO to a concentration 100 fold of the final concentration in the assay. Human recombinant PDE10A […] was expressed in Sf9 cells using a recombinant hPDE10A baculovirus that was made and amplified in house. Cells were harvested after 72 h of infection and the hPDE10A protein was purified by metal chelate chromatography on Ni-sepharose. Compound dilutions (0.4 μl) were added in 384 well plates to 20 μl of incubation buffer (50 mM Tris pH 7.8, 8.3 mM MgCl2, 1.7 mM EGTA). […] of rPDE10A or hPDE10A enzyme in incubation buffer was added and the reaction was started by addition of 10 μl substrate to a final concentration of 60 nM cAMP and 0.008 μCi ^3H-cAMP. The reaction was incubated for 60 minutes at room temperature. […] After sedimentation of the beads during 30 minutes the radioactivity was measured in a Perkin Elmer Topcount scintillation counter and results were expressed as cpm. For blanc values the enzyme was omitted from the reaction and replaced by incubation buffer. Control values were obtained by addition of a final concentration of 1% DMSO instead of compound.

PDE2A = target: T2, PDE2A (Rattus norvegicus, UniProt Q01062); test: PDE2 occupancy by ex-vivo autoradiography with [3H]B-17a; format: in vivo
T2 construct: from tissue; host or cells: rat brain striatal sections (ex vivo)
T2 sequence (Q01062 1-928): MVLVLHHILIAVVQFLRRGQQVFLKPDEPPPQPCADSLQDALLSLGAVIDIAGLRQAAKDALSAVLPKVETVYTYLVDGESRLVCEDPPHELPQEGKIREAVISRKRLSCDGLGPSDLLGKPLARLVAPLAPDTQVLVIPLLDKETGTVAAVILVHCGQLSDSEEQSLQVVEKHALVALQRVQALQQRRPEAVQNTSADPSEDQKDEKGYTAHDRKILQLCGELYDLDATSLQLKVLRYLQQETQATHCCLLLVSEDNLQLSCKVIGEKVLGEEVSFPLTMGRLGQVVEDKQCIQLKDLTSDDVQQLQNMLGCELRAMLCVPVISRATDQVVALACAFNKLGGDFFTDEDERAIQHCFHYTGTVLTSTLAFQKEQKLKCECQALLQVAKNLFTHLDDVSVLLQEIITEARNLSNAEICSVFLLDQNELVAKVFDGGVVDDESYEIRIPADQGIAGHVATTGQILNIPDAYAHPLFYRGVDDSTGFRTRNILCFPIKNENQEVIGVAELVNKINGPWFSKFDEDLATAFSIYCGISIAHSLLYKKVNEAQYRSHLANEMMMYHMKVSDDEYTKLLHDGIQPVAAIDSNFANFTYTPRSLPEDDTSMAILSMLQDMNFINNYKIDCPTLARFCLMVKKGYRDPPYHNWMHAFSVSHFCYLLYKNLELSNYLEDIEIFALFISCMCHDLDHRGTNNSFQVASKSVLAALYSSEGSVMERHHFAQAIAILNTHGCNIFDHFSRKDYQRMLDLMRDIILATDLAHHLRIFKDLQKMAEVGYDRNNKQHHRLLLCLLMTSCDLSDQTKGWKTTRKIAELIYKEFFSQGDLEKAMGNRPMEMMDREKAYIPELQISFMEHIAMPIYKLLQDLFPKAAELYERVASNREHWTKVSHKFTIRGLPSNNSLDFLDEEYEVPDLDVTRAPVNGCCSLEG
Description: PDE2 Occupancy by Test Compounds Methods
Brains were immediately removed from the skull and rapidly frozen in dry-ice cooled 2-methylbutane (−40° C.).
After thawing, sections were dried under a cold stream of air and incubated for one minute with 30 nM [^3H]B-17a in Tris-HCl (50 mM, pH7.4) containing 0.3% BSA. Brain sections from drug-treated and vehicle-treated animals were incubated in parallel. […] After incubation, the excess of [^3H]B-17a was washed off in ice-cold buffer 2 times 10 minutes, followed by a quick dip in distilled water. The sections were then dried under a stream of cold air.
Brain sections were loaded in a β-imager (Biospace, Paris) for 4 h and radioactivity emerging from delineated brain area was quantified using the Beta vision program (Biospace, Paris). Specific binding was determined as the difference between total binding in the striatum and non-specific binding in the cerebellum. Percentage receptor occupancy of the drug administered to the animal corresponded to 100% minus the percentage receptor labeled in the treated animal. For the determination of ED50-values, the percentage of receptor occupancy was plotted against dose and the sigmoidal log dose-effect curve of best fit was calculated by non-linear regression analysis, using the GraphPad Prism program.

[1] = rat, po, read-out: PDE2 occupancy at 10 mg/kg, route PO (oral), 10 mg/kg, male Wistar rats, striatum, percentage occupancy

| Structure (SMILES) | pIC50 (hPDE2A) | Emax (hPDE2A) | hPDE3B Emax (hPDE3B) | hPDE3B pIC50 (hPDE3B) | IC50 (hPDE10A2) | Emax (hPDE10A2) | receptor occupancy at 10 mg/kg (PDE2A; rat, route PO (oral), 10 mg/kg, male Wistar rats, striatum, percentage occupancy, read-out: PDE2 occupancy at 10 mg/kg) | melting point | PDE2 occupancy at 10 mg/kg (PDE2A; route SC (subcutaneous), 10 mg/kg, male Wistar rats, striatum, percentage occupancy) | receptor occupancy at 10 mg/kg (PDE2A; rat, route SC (subcutaneous), 10 mg/kg, male Wistar rats, striatum, percentage occupancy, read-out: PDE2 occupancy at 10 mg/kg) | receptor occupancy at 10 mg/kg (PDE2A; [1]) | IC50 (hPDE2A) | ED50 (PDE2A; rat, po, read-out: PDE occupancy ED50, route PO (oral), male Wistar rats, dose producing 50% occupancy) |
| --- | --- | --- | --- | --- | --- | --- | --- | --- | --- | --- | --- | --- | --- |
| Cc1cc(C(F)(F)F)cc(N2CC[C@@H](C)[C@H](c3cc(C(F)F)nc4ncnn34)C2)n1 [Compound 21] | 7.21 | 101% | 93 | 5.83 | 0.269 µM | 95% | 9% | 124.81 °C | – | – | – | – | – |
| C[C@@H]1CCN(c2nccc3occc23)C[C@H]1c1cc(C(F)F)nc2ncnn12 [Compound 13] | 7.80 | 98% | 54 | 5.07 | 0.457 µM | 91% | – | 182.59 °C | 41 and 67 | – | – | – | – |
| C[C@@H]1CCN(c2nccc3cccnc23)C[C@H]1c1cc(C(F)F)nc2ncnn12 [Compound 23] | 7.13 | 95% | 54 | <5 | 0.661 µM | 93% | – | 111.34 °C | – | 5% | – | – | – |
| C[C@@H]1CCN(c2nccc3cccc(F)c23)C[C@H]1c1cc(C(F)F)nc2ncnn12 [Compound 20] | 7.43 | 100% | 81 | 5.41 | 0.269 µM | 97% | – | 179.73 °C | – | – | 18% | – | – |
| C[C@@H]1CCN(c2nccc3ccc(Cl)cc23)C[C@H]1c1cc(C(F)F)nc2ncnn12 [Compound 4] | – | 100% | 82 | 5.39 | 0.347 µM | 101% | – | 135.42 °C | – | – | 93% | 0.00339 µM | 8.1 mg/kg |
| C[C@@H]1CCN(c2cc(C#N)c3cc(Cl)ccc3n2)C[C@H]1c1cc(C(F)F)nc2ncnn12 [Compound 37] | – | 102% | 70 | 5.17 | 0.363 µM | 96% | – | 235.11 °C | – | – | – | 0.129 µM | – |
